# Tested on: pea plants cv. 'Carneval'
# Assay: Growth chamber experiment 2, pea 'Carneval' sprayed with 4-ME-IAA: peduncle/pedicel growth and seed yield, with or without heat stress (Tables P3-P12)
# Assay type: in vivo, Pisum sativum L.
# Method: For growth chamber experiment, seeds of ‘Carneval’ were planted at an approximate depth of 2.5 cm in 3-L plastic pots (4 seeds per pot and thinned to 2 plants per pot after approximately 2 weeks) in 1:1 Sunshine #4 potting mix (Sun Gro Horticulture, Vancouver, Canada) and sand. The experiment was arranged in a completely randomized design and grown at the University of Alberta in a growth chamber set at 19° C./17° C. (day/night) with a 16/8-h photoperiod under cool-white fluorescent lights (54W/835/HO high fluorescent bulbs, Phillips, Holland; 350 μE m^2 s^−2). For the heat stress treatment, plants were placed in a separate growth chamber with a 16/8-h photoperiod under cool-white fluorescent lights (F54/15/835/HO high fluorescent bulbs, Phillips, Holland) for 4 days where the temperature was cycled over a 24 hr period as follows: 33° C. air temperature for 6 hours per day (between 11:00 and 17:00 hrs) for 4 days during the light cycle; the remainder of the light cycle was maintained at a 22° C. air temperature; the dark cycle was maintained at 19° C. After the 4 day heat treatment, the plants were returned to the same growth chamber they were originally grown in, where they were taken to maturity.
# For experiment 2, aqueous 4-methyl-indole-3-acetic acid (4-ME-IAA) solutions at 1×10^−7, 1×10^−6, 1×10^−5, or 1×10^−4 M in 0.1% (v/v) Tween 80 or aqueous 0.1% (v/v) Tween 80 (control) were applied as a spray to the entire plant to cover when the first flowering node of the main stem was near or at anthesis. In addition to the application at the timing cited above, one application of 4-ME-IAA at 1×10^−6 M or 1×10^−5 M was made when the floral buds were tightly clustered inside the stipule leaves at the stem apex (floral buds not visible outside of stipule leaves; designated the ‘Early’ treatment). In the heat stress treatment, the hormone or control treatment application was completed 16 hrs prior to the initiation of the first heat-stress cycle. The length and diameter (measured mid-length) of the lower and upper peduncles and pedicels of the inflorescence with two pods (or the lower peduncle and pedicel if a single pod node) at the first, second, third and fourth flowering nodes of the main stem of pea plants were determined for hormone-treated and control plants. Standard error of the mean (SE) was calculated for the means of all data for a measure of statistical significance in comparing treatment means.
# [1] = 1×10^−4 M, applied near or at anthesis, no heat stress
# [2] = 1×10^−4 M, first flowering node, heat stress (33° C. 6 h/day, 4 days)
# [3] = 1×10^−4 M, first flowering node, no heat stress
# [4] = 1×10^−4 M, fourth flowering node, heat stress (33° C. 6 h/day, 4 days)
# [5] = 1×10^−4 M, fourth flowering node, no heat stress
# [6] = 1×10^−4 M, heat stress (33° C. 6 h/day, 4 days)
# [7] = 1×10^−4 M, second flowering node, heat stress (33° C. 6 h/day, 4 days)
# [8] = 1×10^−4 M, second flowering node, no heat stress
# [9] = 1×10^−4 M, third flowering node, heat stress (33° C. 6 h/day, 4 days)
# [10] = 1×10^−4 M, third flowering node, no heat stress
# [11] = 1×10^−5 M, applied near or at anthesis, no heat stress
smiles,measurement,setting,value
"Cc1cccc2[nH]cc(CC(=O)O)c12 [4-ME-IAA, 4-methyl-indole-3-acetic acid]",Ratio of seed number on main stem to lateral stems,[1],4.6 ± 1.1
same,Seed number per plant,[1],56.7 ± 3.6
same,Seed weight per plant,[1],14.0 ± 1.0 g
same,Weight per seed,[1],0.247 ± 0.006 g
same,increase in seed yield (seed weight per plant) vs control,[1],61%
same,Lower Pedicel Length,[2],7.63 ± 0.46 mm
same,Lower Pedicel diameter,[2],1.58 ± 0.09 mm
same,Lower Peduncle Length,[2],52.22 ± 4.26 mm
same,Lower Peduncle diameter,[2],1.71 ± 0.06 mm
same,Upper Pedicel Length,[2],7.00 ± 0.45 mm
same,Upper Pedicel diameter,[2],1.6 ± 0.07 mm
same,Upper Peduncle Length,[2],17.00 ± 1.37 mm
same,Upper Peduncle diameter,[2],1.44 ± 0.07 mm
same,Lower Pedicel Length,[3],8.50 ± 0.37 mm
same,Lower Pedicel diameter,[3],1.73 ± 0.05 mm
same,Lower Peduncle Length,[3],69.70 ± 4.21 mm
same,Lower Peduncle diameter,[3],1.73 ± 0.07 mm
same,Upper Pedicel Length,[3],8.10 ± 0.43 mm
same,Upper Pedicel diameter,[3],1.54 ± 0.05 mm
same,Upper Peduncle Length,[3],15.20 ± 1.36 mm
same,Upper Peduncle diameter,[3],1.44 ± 0.03 mm
same,Lower Pedicel Length,[4],7.00 ± 0.41 mm
same,Lower Pedicel diameter,[4],1.45 ± 0.11 mm
same,Lower Peduncle Length,[4],25.50 ± 3.97 mm
same,Lower Peduncle diameter,[4],1.38 ± 0.10 mm
same,Upper Pedicel Length,[4],7.00 ± 0.0 mm
same,Upper Pedicel diameter,[4],1.33 ± 0.15 mm
same,Upper Peduncle Length,[4],14.50 ± 0.50 mm
same,Upper Peduncle diameter,[4],1.17 ± 0.02 mm
same,Lower Pedicel Length,[5],8.44 ± 0.23 mm
same,Lower Pedicel diameter,[5],1.42 ± 0.05 mm
same,Lower Peduncle Length,[5],41.00 ± 3.24 mm
same,Lower Peduncle diameter,[5],1.36 ± 0.06 mm
same,Upper Pedicel Length,[5],8.22 ± 0.14 mm
same,Upper Pedicel diameter,[5],1.36 ± 0.06 mm
same,Upper Peduncle Length,[5],16.67 ± 0.39 mm
same,Upper Peduncle diameter,[5],1.17 ± 0.04 mm
same,Ratio of seed number on main stem to lateral stems,[6],2.1 ± 0.4
same,Seed number plant,[6],55.6 ± 6.2
same,Seed weight per per plant,[6],14.5 ± 1.7 g
same,Weight per seed,[6],0.261 ± 0.009 g
same,Lower Pedicel Length,[7],7.56 ± 0.38 mm
same,Lower Pedicel diameter,[7],1.56 ± 0.06 mm
same,Lower Peduncle Length,[7],40.33 ± 4.51 mm
same,Lower Peduncle diameter,[7],1.63 ± 0.04 mm
same,Upper Pedicel Length,[7],7.25 ± 0.25 mm
same,Upper Pedicel diameter,[7],1.54 ± 0.05 mm
same,Upper Peduncle Length,[7],16.88 ± 1.52 mm
same,Upper Peduncle diameter,[7],1.29 ± 0.04 mm
same,Lower Pedicel Length,[8],8.30 ± 0.47 mm
same,Lower Pedicel diameter,[8],1.65 ± 0.05 mm
same,Lower Peduncle Length,[8],55.60 ± 4.08 mm
same,Lower Peduncle diameter,[8],1.67 ± 0.06 mm
same,Upper Pedicel Length,[8],8.3 ± 0.47 mm
same,Upper Pedicel diameter,[8],1.55 ± 0.05 mm
same,Upper Peduncle Length,[8],18.40 ± 0.72 mm
same,Upper Peduncle diameter,[8],1.38 ± 0.05 mm
same,Lower Pedicel Length,[9],7.33 ± 0.29 mm
same,Lower Pedicel diameter,[9],1.55 ± 0.08 mm
same,Lower Peduncle Length,[9],28.22 ± 3.07 mm
same,Lower Peduncle diameter,[9],1.53 ± 0.06 mm
same,Upper Pedicel Length,[9],7.50 ± 0.29 mm
same,Upper Pedicel diameter,[9],1.49 ± 0.05 mm
same,Upper Peduncle Length,[9],14.00 ± 1.00 mm
same,Upper Peduncle diameter,[9],1.29 ± 0.03 mm
same,Lower Pedicel Length,[10],8.20 ± 0.33 mm
same,Lower Pedicel diameter,[10],1.49 ± 0.06 mm
same,Lower Peduncle Length,[10],49.90 ± 4.2 mm
same,Lower Peduncle diameter,[10],1.53 ± 0.05 mm
same,Upper Pedicel Length,[10],8.10 ± 0.28 mm
same,Upper Pedicel diameter,[10],1.40 ± 0.06 mm
same,Upper Peduncle Length,[10],19.10 ± 0.75 mm
same,Upper Peduncle diameter,[10],1.21 ± 0.04 mm
same,Ratio of seed number on main stem to lateral stems,[11],3.3 ± 0.6
same,Seed number per plant,[11],60.3 ± 3.2

# — patent US20140106967A1, “AUXIN PLANT GROWTH REGULATORS” (The Governors of The University of Alberta, priority 2011, published 2014)
